Experimental data reported in patent publication US20210032257A1, “(E)-1-(4-(DIMETHYLAMINO)BUT-2-ENOYL)PYRROLIDIN-3-YL 4-((3-ISOPROPYL-5-METHYLPYRAZOLO[1,5-A]PYRIMIDIN-7-YL)AMINO)PIPERIDINE-1-CARBOXYLATE FOR INHIBITING CDK7” (Eli Lilly and Company, priority 2017, published 2021).
pIC50: −log10 of the molar value.

Tests used:
Assay in all cases: Biomarker study proliferation (CellTiter-Glo)
Assay type in all cases: cell-based
[1] = test system: NCIH526
How it was run: (§1)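 Cells seeded at 5000/well, incubated overnight at 37 °C, 5% CO2, then treated with 10-point 1:3 dilutions from a 10 mM DMSO working solution. After 7 days, ATP luminescence was read by CellTiter-Glo. Classed insensitive (IC50≥1 μM), cytostatic (IC50<1 μM, inhibition <70%) or cytotoxic (IC50<1 μM, inhibition ≥70%).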

[2] = test system: A2780
How it was run: as §1

[3] = test system: HEYA8
How it was run: as §1

[4] = test system: KPL1
How it was run: as §1

[5] = test system: SW48
How it was run: as §1

[6] = test system: NCIH596
How it was run: as §1

[7] = test system: OAW42
How it was run: as §1

[8] = test system: SNU475
How it was run: as §1

[9] = test system: EGL1
How it was run: as §1

[10] = test system: HLE
How it was run: as §1

[11] = test system: THP1
How it was run: as §1

[12] = test system: HUH7
How it was run: as §1

[13] = test system: LN229
How it was run: as §1

[14] = test system: HEP3B217
How it was run: as §1

[15] = test system: NCIH2122
How it was run: as §1

[16] = test system: NCIH2228
How it was run: as §1

[17] = test system: HGC27
How it was run: as §1

[18] = test system: U118MG
How it was run: as §1

[19] = 168 h, read-out: Anti-proliferation effect IC50

## Cc1cc(NC2CCN(C(=O)O[C@H]3CCN(C(=O)/C=C/CN(C)C)C3)CC2)n2ncc(C(C)C)c2n1 [Example 1, [(3S)-1-[(E)-4-(dimethylamino)but-2-enoyl]pyrrolidin-3-yl] 4-[(3-isopropyl-5-methyl-pyrazolo[1,5-a]pyrimidin-7-yl)amino]piperidine-1-carboxylate]
[1]; Homo sapiens, NCI-H526, 168 h, read-out: Anti-proliferation effect IC50
  pIC50: 7.74
[1]; NCIH526, LUNG, 7 days
  Anti-proliferation effect % Inh.: 94%
  Anti-proliferation effect Outcome: Cytotoxic (cytotoxic (IC50<1 μM and % inhibition ≥70%))
[2]; A2780, OVARY, 7 days
  Anti-proliferation effect % Inh.: 74%
  Anti-proliferation effect Outcome: Cytotoxic (cytotoxic (IC50<1 μM and % inhibition ≥70%))
[2]; Homo sapiens, A2780, 168 h, read-out: Anti-proliferation effect IC50
  pIC50: 7.28
[3]; HEY A8, 168 h, read-out: Anti-proliferation effect IC50
  pIC50: 6.95
[3]; HEYA8, OVARY, 7 days
  Anti-proliferation effect % Inh.: 89%
  Anti-proliferation effect Outcome: Cytotoxic (cytotoxic (IC50<1 μM and % inhibition ≥70%))
[4]; KPL1, BREAST, 7 days
  Anti-proliferation effect % Inh.: 43%
  Anti-proliferation effect Outcome: Cytostatic (cytostatic (IC50<1 μM and % inhibition <70%))
[4]; KPL-1, 168 h, read-out: Anti-proliferation effect IC50
  pIC50: 6.18
[5]; Homo sapiens, SW48, 168 h, read-out: Anti-proliferation effect IC50
  pIC50: 8.30
[5]; SW48, INTESTINE, 7 days
  Anti-proliferation effect % Inh.: 89%
  Anti-proliferation effect Outcome: Cytotoxic (cytotoxic (IC50<1 μM and % inhibition ≥70%))
[6]; Homo sapiens, NCI-H596, 168 h, read-out: Anti-proliferation effect IC50
  pIC50: 6.04
[6]; NCIH596, LUNG, 7 days
  Anti-proliferation effect % Inh.: 46%
  Anti-proliferation effect Outcome: Cytostatic (cytostatic (IC50<1 μM and % inhibition <70%))
[7]; Homo sapiens, OAW-42, 168 h, read-out: Anti-proliferation effect IC50
  pIC50: 6.87
[7]; OAW42, OVARY, 7 days
  Anti-proliferation effect % Inh.: 88%
  Anti-proliferation effect Outcome: Cytotoxic (cytotoxic (IC50<1 μM and % inhibition ≥70%))
[8]; Homo sapiens, SNU-475, 168 h, read-out: Anti-proliferation effect IC50
  pIC50: 5.41
[8]; SNU475, LIVER, 7 days
  Anti-proliferation effect % Inh.: 28%
  Anti-proliferation effect Outcome: Insensitive (insensitive (IC50≥1 μM))
[9]; [19]
  pIC50: 7.39
[9]; EGL1, 7 days
  Anti-proliferation effect % Inh.: 95%
  Anti-proliferation effect Outcome: Cytotoxic (cytotoxic (IC50<1 μM and % inhibition ≥70%))
[10]; Homo sapiens, 168 h, read-out: Anti-proliferation effect IC50
  pIC50: 7.52
[10]; LIVER, 7 days
  Anti-proliferation effect % Inh.: 77%
  Anti-proliferation effect Outcome: Cytotoxic (cytotoxic (IC50<1 μM and % inhibition ≥70%))
[11]; Homo sapiens, THP-1, 168 h, read-out: Anti-proliferation effect IC50
  pIC50: 7.38
[11]; THP1, BLOOD, 7 days
  Anti-proliferation effect % Inh.: 81%
  Anti-proliferation effect Outcome: Cytotoxic (cytotoxic (IC50<1 μM and % inhibition ≥70%))
[12]; HUH7, LIVER, 7 days
  Anti-proliferation effect % Inh.: 64%
  Anti-proliferation effect Outcome: Cytostatic (cytostatic (IC50<1 μM and % inhibition <70%))
[12]; Homo sapiens, Huh-7, 168 h, read-out: Anti-proliferation effect IC50
  pIC50: 6.76
[13]; Homo sapiens, LN-229, 168 h, read-out: Anti-proliferation effect IC50
  pIC50: 7.44
[13]; LN229, CNS, 7 days
  Anti-proliferation effect % Inh.: 63%
  Anti-proliferation effect Outcome: Cytostatic (cytostatic (IC50<1 μM and % inhibition <70%))
[14]; [19]
  pIC50: 7.48
[14]; HEP3B217, LIVER, 7 days
  Anti-proliferation effect % Inh.: 66%
  Anti-proliferation effect Outcome: Cytostatic (cytostatic (IC50<1 μM and % inhibition <70%))
[15]; Homo sapiens, NCI-H2122, 168 h, read-out: Anti-proliferation effect IC50
  pIC50: 7.11
[15]; NCIH2122, LUNG, 7 days
  Anti-proliferation effect % Inh.: 85%
  Anti-proliferation effect Outcome: Cytotoxic (cytotoxic (IC50<1 μM and % inhibition ≥70%))
[16]; Homo sapiens, NCI-H2228, 168 h, read-out: Anti-proliferation effect IC50
  pIC50: 6.56
[16]; NCIH2228, LUNG, 7 days
  Anti-proliferation effect % Inh.: 57%
  Anti-proliferation effect Outcome: Cytostatic (cytostatic (IC50<1 μM and % inhibition <70%))
[17]; HGC27, STOMACH, 7 days
  Anti-proliferation effect % Inh.: 78%
  Anti-proliferation effect Outcome: Cytotoxic (cytotoxic (IC50<1 μM and % inhibition ≥70%))
[17]; Homo sapiens, HGC-27, 168 h, read-out: Anti-proliferation effect IC50
  pIC50: 7.17
[18]; Homo sapiens, U-118-MG, 168 h, read-out: Anti-proliferation effect IC50
  pIC50: 5.93
[18]; U118MG, CNS, 7 days
  Anti-proliferation effect % Inh.: 42%
  Anti-proliferation effect Outcome: Insensitive (insensitive (IC50≥1 μM))
